# Non-standard residues stand in square brackets, D forms with d. Residues, ends and D or L forms follow the SMILES beside them. Nle = CCCC[C@H](N)C(=O)O
# Tests used:
# Format in all cases: cell-based, mouse
# [1] = tested on: NIH3T3 cells, TPA (PKC downreg); test: MTT cell viability, TPA (PKC downreg) cells vs parental line; settings: 3 to 4 days
# Experimental: (§1) With regard to the function-known genes, the genes shown in the left column of Table 2 were used. With regard to the drugs, those shown in Table 1 were dissolved in DMSO to an extent of 100-fold of the maximum concentration for the search of the drugs and used. With regard to the cells, incubated NIH3T3 or ras-NIH3T3 cells were used.
# (§2) Full-length cDNA of each function-known genes was incorporated into an expression vector (pRc-CMV, etc.) and transfected into NIH3T3 cells by a common method. Transformed cells were isolated using the resistance to G-418 as an index and the expression of the transfected gene in each cell was investigated by Western blotting method to select a highly expressing line.
# (§3) Cell viabilities were measured according to the following procedures.
# (§4) 1) From the 2nd to the 11th rows of a 96-well plate were filled with DMEM (50 μl). The 12th row was filled with 100 μl of DMEM.
# (§5) 2) The 1st row was filled with 98 μl of DMEM.
# (§6) 3) Drugs (2 μl each) were added into the 1st row.
# (§7) 4) Continuous double-dilution was conducted from the 1st to the 9th rows. Fifty μl were taken out from the 9th row and discarded. The plate was preserved in a CO2 incubator.
# (§8) 5) Cells (each high-expressing cells and the parental cell line) were detached from the medium using a trypsin solution, suspended in 10% CS-DMEM and transferred to a test tube and cell numbers (cell/ml) were counted.
# (§9) 6) The cells were diluted to a concentration of 1×10^5 cells/ml, and 50 μl of the cell suspension were added to the 1st to the 11th rows of the plate followed by gently stirring.
# (§10) 7) The plate was transferred to the CO2 incubator and incubated for 3 to 4 days.
# (§11) 8) MTT (5 mg/ml in PBS) (10 μl) was added to the 1st to the 12th rows of the plate and incubated in the CO2 incubator at 37° C. for 4 hours.
# (§12) 9) A reaction stop solution (0.04N HCl in isopropanol) (150 μl) was added followed by mixing well and being allowed to stand at room temperature for about 2 hours.
# (§13) 10) Coloration of formazan which was a metabolite of the MTT dye was measured using a microplate reader. The measurement wavelength was 574 nm and the reference wavelength was 655 nm. The 10th and the 11th rows of the plate were 100% controls and the 12th row was a 0% control.
# (§14) As an index for the sensitivity of highly gene-expressing cells and the parental cell line to various drugs, each of the IC40 values thereof was specified and ratios of the IC40 values were calculated. FIG. 2 and FIG. 3 are the examples where ratios of IC40 values were calculated from a curve showing the dependency on the concentration of the chemical versus the viability. After that, logarithmic values of ratios of IC40 values were calculated from each gene.
# [2] = tested on: NIH3T3 cells overexpressing cystatin E; test: MTT cell viability, cystatin E overexpressing cells vs parental line; settings: cystatin E high-expressing cells / parental cell line, 3 to 4 days
# Experimental: as §1, §2, §3, §4, §5, §6, §7, §8, §9, §10, §11, §12, §13, §14
# [3] = tested on: NIH3T3 cells overexpressing PKCalpha-KN; test: MTT cell viability, PKCalpha-KN overexpressing cells vs parental line; settings: 3 to 4 days
# Experimental: as §1, §2, §3, §4, §5, §6, §7, §8, §9, §10, §11, §12, §13
# (§15) As an index for the sensitivity of highly gene-expressing cells and the parental cell line to various drugs, each of the IC40 values thereof was specified and ratios of the IC40 values were calculated. […] After that, logarithmic values of ratios of IC40 values were calculated from each gene.
# [4] = tested on: NIH3T3 cells overexpressing p16/INK4A; test: MTT cell viability, p16/INK4A overexpressing cells vs parental line; settings: p16/INK4A high-expressing cells / parental cell line, 3 to 4 days
# Experimental: as §1, §2, §3, §4, §5, §6, §7, §8, §9, §10, §11, §12, §13, §14
# [5] = tested on: NIH3T3 cells overexpressing Regucalcin; test: MTT cell viability, Regucalcin overexpressing cells vs parental line; settings: Regucalcin high-expressing cells / parental cell line, 3 to 4 days
# Experimental: as §1, §2, §3, §4, §5, §6, §7, §8, §9, §10, §11, §12, §13, §14
# [6] = tested on: NIH3T3 cells overexpressing Bax; test: MTT cell viability, Bax overexpressing cells vs parental line; settings: 3 to 4 days
# Experimental: as §1, §2, §3, §4, §5, §6, §7, §8, §9, §10, §11, §12, §13, §15
# [7] = tested on: NIH3T3 cells overexpressing TK; test: MTT cell viability, TK overexpressing cells vs parental line; settings: TK high-expressing cells / parental cell line, 3 to 4 days
# Experimental: as §1, §2, §3, §4, §5, §6, §7, §8, §9, §10, §11, §12, §13, §14
# [8] = tested on: NIH3T3 cells overexpressing CaMKIIa; test: MTT cell viability, CaMKIIa overexpressing cells vs parental line; settings: CaMKIIa high-expressing cells / parental cell line, 3 to 4 days
# Experimental: as §1, §2, §3, §4, §5, §6, §7, §8, §9, §10, §11, §12, §13, §15
# [9] = tested on: NIH3T3 cells overexpressing caspase-3; test: MTT cell viability, caspase-3 overexpressing cells vs parental line; settings: caspase-3 high-expressing cells / parental cell line, 3 to 4 days
# Experimental: as §1, §2, §3, §4, §5, §6, §7, §8, §9, §10, §11, §12, §13, §15
# [10] = tested on: NIH3T3 cells overexpressing p38-DN; test: MTT cell viability, p38-DN overexpressing cells vs parental line; settings: p38-DN high-expressing cells / parental cell line, 3 to 4 days
# Experimental: as §1, §2, §3, §4, §5, §6, §7, §8, §9, §10, §11, §12, §13, §15
# [11] = tested on: NIH3T3 cells overexpressing HNF4; test: MTT cell viability, HNF4 overexpressing cells vs parental line; settings: HNF4 high-expressing cells / parental cell line, 3 to 4 days
# Experimental: as §1, §2, §3, §4, §5, §6, §7, §8, §9, §10, §11, §12, §13, §15
# [12] = tested on: NIH3T3 cells overexpressing PKCepsilon-KN; test: MTT cell viability, PKCepsilon-KN overexpressing cells vs parental line; settings: 3 to 4 days
# Experimental: as §1, §2, §3, §4, §5, §6, §7, §8, §9, §10, §11, §12, §13, §15
# [13] = tested on: NIH3T3 cells overexpressing PDGF-R-Del; test: MTT cell viability, PDGF-R-Del overexpressing cells vs parental line; settings: PDGF-R-Del high-expressing cells / parental cell line, 3 to 4 days
# Experimental: as §1, §2, §3, §4, §5, §6, §7, §8, §9, §10, §11, §12, §13, §14
# [14] = tested on: NIH3T3 cells overexpressing Ha-ras; test: MTT cell viability, drug sensitivity of Ha-ras overexpressing cells vs parental line; settings: Ha-ras high-expressing cells / parental cell line, 3 to 4 days
# Experimental: as §1, §2, §3, §4, §5, §6, §7, §8, §9, §10, §11, §12, §13, §15
# [15] = tested on: NIH3T3 cells overexpressing HNF1; test: MTT cell viability, HNF1 overexpressing cells vs parental line; settings: HNF1 high-expressing cells / parental cell line, 3 to 4 days
# Experimental: as §1, §2, §3, §4, §5, §6, §7, §8, §9, §10, §11, §12, §13, §15
# [16] = tested on: NIH3T3 cells overexpressing RhoA; test: MTT cell viability, RhoA overexpressing cells vs parental line; settings: RhoA high-expressing cells / parental cell line, 3 to 4 days
# Experimental: as §1, §2, §3, §4, §5, §6, §7, §8, §9, §10, §11, §12, §13, §14
# [17] = tested on: NIH3T3 cells overexpressing DAN; test: MTT cell viability, DAN overexpressing cells vs parental line; settings: DAN high-expressing cells / parental cell line, 3 to 4 days
# Experimental: as §1, §2, §3, §4, §5, §6, §7, §8, §9, §10, §11, §12, §13, §14
# [18] = tested on: NIH3T3 cells overexpressing v-src; test: MTT cell viability, v-src overexpressing cells vs parental line; settings: v-src high-expressing cells / parental cell line, 3 to 4 days
# Experimental: as §1, §2, §3, §4, §5, §6, §7, §8, §9, §10, §11, §12, §13, §14
# [19] = tested on: NIH3T3 cells overexpressing HSP4O; test: MTT cell viability, HSP4O overexpressing cells vs parental line; settings: HSP4O high-expressing cells / parental cell line, 3 to 4 days
# Experimental: as §1, §2, §3, §4, §5, §6, §7, §8, §9, §10, §11, §12, §13, §14
# [20] = PKCalpha-KN (first of two lines) high-expressing cells / parental cell line
# [21] = PKCalpha-KN (second of two lines) high-expressing cells / parental cell line
# [22] = Bax (first of two Bax lines) high-expressing cells / parental cell line
# [23] = Bax (second of two Bax lines) high-expressing cells / parental cell line
# [24] = PKCepsilon-KN (first of two lines) high-expressing cells / parental cell line
# [25] = PKCepsilon-KN (second of two lines) high-expressing cells / parental cell line
Structure (SMILES),logarithmic value of ratio of IC40 values [1],logarithmic value of ratio of IC40 values [2],"logarithmic value of ratio of IC40 values [3, 20]","logarithmic value of ratio of IC40 values [3, 21]",logarithmic value of ratio of IC40 values [4],logarithmic value of ratio of IC40 values [5],"logarithmic value of ratio of IC40 values [6, 22]","logarithmic value of ratio of IC40 values [6, 23]",logarithmic value of ratio of IC40 values [7],logarithmic value of ratio of IC40 values [8],logarithmic value of ratio of IC40 values [9],logarithmic value of ratio of IC40 values [10],logarithmic value of ratio of IC40 values [11],"logarithmic value of ratio of IC40 values [12, 24]","logarithmic value of ratio of IC40 values [12, 25]",logarithmic value of ratio of IC40 values [13],logarithmic value of ratio of IC40 values [14],logarithmic value of ratio of IC40 values [15],logarithmic value of ratio of IC40 values [16],logarithmic value of ratio of IC40 values [17],other results
CC(=O)OCOC(=O)CN(CC(=O)OCOC(C)=O)c1ccccc1OCCOc1ccccc1N(CC(=O)OCOC(C)=O)CC(=O)OCOC(C)=O [BAPTA-AM],−0.03,−0.02,0.43,−0.42,0.20,−0.39,0.15,0.00,0.00,−0.12,0.60,0.00,−0.10,0.00,0.00,0.31,−0.20,0.20,0.00,0.70,logarithmic value of ratio of IC40 values [18]: −0.22; logarithmic value of ratio of IC40 values [19]: 0.05
CCCC[C@@H](C=O)NC(=O)[C@H](CC(C)C)NC(=O)[C@H](CC(C)C)NC(C)=O [ALLN] (Ac-Leu-Leu-[Nle]-aldehyde),−0.09,0.19,0.11,−0.01,0.09,0.00,−0.10,0.11,0.00,0.00,−0.09,0.04,−0.15,0.07,0.19,0.10,0.15,0.16,0.00,0.00,logarithmic value of ratio of IC40 values [18]: 0.10; logarithmic value of ratio of IC40 values [19]: 0.18
"COC[C@H]1OC(=O)c2coc3c2[C@@]1(C)C1=C(C3=O)[C@@H]2CCC(=O)[C@@]2(C)C[C@H]1OC(C)=O [Wortmannin, wortmannin]",0.00,0.00,0.41,−0.06,0.30,−0.28,0.14,0.10,0.00,−0.15,0.45,−0.18,0.14,−0.15,−0.28,0.07,0.34,0.16,0.24,0.52,logarithmic value of ratio of IC40 values [18]: 0.08; logarithmic value of ratio of IC40 values [19]: −0.07
C=CC1=C(C)c2cc3[n-]c(cc4nc(cc5[n-]c(cc1n2)c(C)c5CCC(=O)O)C(CCC(=O)O)=C4C)c(C)c3C=C.[Cl-].[Cl-].[Sn+4] [SnPP],−0.20,0.11,−0.14,0.00,−0.05,0.32,0.17,0.10,0.00,0.24,−0.40,0.10,0.46,0.27,0.24,0.08,0.28,0.138,0.14,−0.49,logarithmic value of ratio of IC40 values [18]: −0.17; logarithmic value of ratio of IC40 values [19]: 0.28
"CCCC[C@@H](C)/C=C(C)/C=C(\C)C(=O)NC1=C[C@@](O)(/C=C/C=C/C=C/C(=O)NC2=C(O)CCC2=O)[C@@H]2O[C@@H]2C1=O [Manumycin, manumycin]",0.03,0.00,0.00,0.16,0.08,0.04,−0.07,0.06,0.00,0.00,0.04,0.00,0.00,−0.11,0.16,0.09,−0.30,0.06,−0.04,0.00,logarithmic value of ratio of IC40 values [18]: 0.00; logarithmic value of ratio of IC40 values [19]: −0.06

# Reference: patent publication US20040086901A1, “Database for analyzing gene function and method of analyzing gene function by dspa” (priority 2000, published 2004)
